Data: patent publication US20170239323A1, “ORITAVANCIN FORMULATIONS” (The Medicines Company, priority 2016, published 2017)

Assay: Double-blind pharmacokinetic study of a single 1200 mg IV dose of oritavancin in healthy volunteers
Assay type: in vivo
Conditions: human, plasma, healthy subjects, average
Procedure: A randomized, double-blind, single center cohort study of a new formulation of a single 1200 mg IV dose of oritavancin in healthy volunteers, adjusting infusion time, concentration and reconstitution/administration solutions, of a single 1200 mg intravenous (IV) infusion of oritavancin in healthy adult subjects, was performed. Cohort 1 was administered the current, approved formulation of oritavancin which uses Sterile Water For Injection (SWFI) as the reconstituting agent and D5W for further dilution for a volume of 1000 mL. This infusion was given per the approved label over three hours. Cohort 2 was administered a new formulation for which hydroxypropyl-β-cyclodextrin (HPBCD) was included in the reconstitution diluent and D5W is used for further dilution for a total volume of 250 mL. This formulation was administered over two hours. Cohorts 3, 4, and 5 were administered the same new formulation as Cohort 2 (HPBCD and 250 mL of D5W); however, the infusion was administered over 90, 60, 30 minutes respectively. Two subjects in each of Cohorts 2, 3, 4, and 5 received a placebo infusion of D5W to use as a comparison when reviewing adverse event data. Healthy volunteer subjects providing informed consent and meeting all study eligibility criteria were randomized in the study and received one 1200 mg dose of IV oritavancin or placebo (cohorts 2-5 only).
COHORT 1: At the time of use, each vial was reconstituted by adding 40 mL of Sterile Water or for Injection, (“SWFI,” United States Pharmacopeia) to each 400 mg vial of oritavancin. Vials reconstituted in this manner gave a 10 mg/mL solution. After reconstitution, the compositions were combined and further diluted in 5% dextrose in water (D5W) to provide a total volume of approximately 1000 mL. At each dosing, 1200 mg of oritavancin in 1000 mL total of diluent was administered at a constant rate IV infusion over 3 hours via a single dedicated peripheral IV line (n=6).
(§1) COHORT 2: At the time of use, each vial was reconstituted by adding 4 mL of SWFI and 4 mL of 20% (w/v) HPBCD solution, to each 400 mg vial of oritavancin. Vials reconstituted in this manner provided a 50 mg/mL oritavancin solution. After reconstitution, the compositions were combined and further diluted in 5% dextrose in water (D5W) to provide a total volume of approximately 250 mL. At each dosing, 1200 mg of oritavancin in 250 mL of diluent was administered as a constant rate IV infusion over 2 hours via a single dedicated peripheral IV line (n=8) or a 2 hour placebo IV infusion of 250 mL of D5W (n=2).
as §1, with “3:” for “2:”, “90 minutes” for “2 hours”, “90 minute” for “2 hour”, “placebo” for “placebo IV”
as §1, with “4:” for “2:”, “60 minutes” for “2 hours”, “60 minute” for “2 hour”, “placebo” for “placebo IV”
COHORT 5: At the time of use, each vial was reconstituted by adding 4 mL of SWFI and 4 mL of 20% (w/v) HPBCD solution, to each 400 mg vial of oritavancin. […]

[1] = Cohort 1: 1200 mg IV, approved formulation (SWFI, no HPBCD), D5W 1000 mL, 3 h infusion
[2] = Cohort 2: 1200 mg IV, HPBCD formulation, D5W 250 mL, 2 h infusion
[3] = Cohort 3: 1200 mg IV, HPBCD formulation, D5W 250 mL, 1.5 h infusion
[4] = Cohort 4: 1200 mg IV, HPBCD formulation, D5W 250 mL, 1 h infusion
[5] = Cohort 5: 1200 mg IV, HPBCD formulation, D5W 250 mL, 0.5 h infusion
[6] = Cohort 6: 1200 mg IV, HPBCD formulation, NS 250 mL, 1 h infusion

For `CN[C@H](CC(C)C)C(=O)N[C@H]1C(=O)N[C@@H](CC(N)=O)C(=O)N[C@H]2C(=O)N[C@H]3C(=O)N[C@H](C(=O)N[C@H](C(=O)O)c4cc(O)cc(O)c4-c4cc3ccc4O)[C@H](O[C@H]3C[C@](C)(N)[C@@H](O)[C@H](C)O3)c3ccc(c(Cl)c3)Oc3cc2cc(c3O[C@@H]2O[C@H](CO)[C@@H](O)[C@H](O)[C@H]2O[C@H]2C[C@](C)(NCc3ccc(-c4ccc(Cl)cc4)cc3)[C@@H](O)[C@H](C)O2)Oc2ccc(cc2Cl)[C@H]1O` [Oritavancin], the AUC(0-inf) [1] was 3680 µg·h/mL, the Cmax [1] was 183 µg/mL and the AUC(0-inf) [2] was 2710 µg·h/mL. For the same compound, the Cmax [2] was 153 µg/mL, the AUC(0-inf) [3] was 2850 µg·h/mL and the Cmax [3] was 177 µg/mL. It also gave an AUC(0-inf) [4] of 2870 µg·h/mL, a Cmax [4] of 202 µg/mL and an AUC(0-inf) [5] of 3180 µg·h/mL. It also gave a Cmax [5] of 199 µg/mL, an AUC(0-inf) [6] of 2960 µg·h/mL and a Cmax [6] of 206 µg/mL.
